Biological target: ATP-dependent translocase ABCB1 (Homo sapiens, UniProt P08183)
Assay: TP_TRANSPORTER: increase in Vincristine intracellular accumulation (0.025 uM) in K562/ADM cells
Assay type: functional, cell-based
Conditions: k562/adr

Chain of ATP-dependent translocase ABCB1 (P08183 whole entry): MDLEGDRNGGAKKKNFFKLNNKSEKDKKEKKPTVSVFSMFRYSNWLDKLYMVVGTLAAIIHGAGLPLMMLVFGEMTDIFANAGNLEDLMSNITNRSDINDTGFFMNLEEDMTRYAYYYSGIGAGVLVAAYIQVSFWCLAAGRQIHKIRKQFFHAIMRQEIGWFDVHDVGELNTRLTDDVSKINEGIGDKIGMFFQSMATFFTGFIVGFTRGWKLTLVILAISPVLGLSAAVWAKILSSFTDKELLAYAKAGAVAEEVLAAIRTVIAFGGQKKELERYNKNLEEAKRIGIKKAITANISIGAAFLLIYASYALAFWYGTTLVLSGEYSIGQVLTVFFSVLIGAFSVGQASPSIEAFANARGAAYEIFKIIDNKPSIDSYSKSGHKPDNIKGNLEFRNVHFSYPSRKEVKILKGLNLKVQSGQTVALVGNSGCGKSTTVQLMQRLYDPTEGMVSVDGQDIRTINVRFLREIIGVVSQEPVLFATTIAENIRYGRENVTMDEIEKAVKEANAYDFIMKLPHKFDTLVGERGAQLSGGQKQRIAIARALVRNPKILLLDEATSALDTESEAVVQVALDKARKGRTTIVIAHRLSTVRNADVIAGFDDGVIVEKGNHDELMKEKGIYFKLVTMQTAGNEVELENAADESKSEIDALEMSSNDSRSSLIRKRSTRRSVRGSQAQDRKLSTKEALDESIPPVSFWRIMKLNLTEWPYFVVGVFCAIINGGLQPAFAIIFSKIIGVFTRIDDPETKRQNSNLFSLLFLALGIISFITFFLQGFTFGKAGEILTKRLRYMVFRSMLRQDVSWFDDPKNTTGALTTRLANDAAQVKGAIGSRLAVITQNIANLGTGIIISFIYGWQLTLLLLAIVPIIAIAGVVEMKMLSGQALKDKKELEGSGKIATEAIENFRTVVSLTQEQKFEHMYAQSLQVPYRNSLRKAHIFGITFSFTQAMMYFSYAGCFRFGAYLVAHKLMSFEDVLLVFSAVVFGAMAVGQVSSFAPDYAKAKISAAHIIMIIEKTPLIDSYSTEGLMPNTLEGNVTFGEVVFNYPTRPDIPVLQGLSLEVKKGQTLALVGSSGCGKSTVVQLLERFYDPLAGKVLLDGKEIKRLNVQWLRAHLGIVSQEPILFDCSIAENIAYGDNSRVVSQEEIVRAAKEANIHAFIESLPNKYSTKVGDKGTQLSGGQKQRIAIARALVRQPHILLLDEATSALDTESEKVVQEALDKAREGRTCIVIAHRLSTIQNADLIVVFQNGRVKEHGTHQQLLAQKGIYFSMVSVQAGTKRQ

Question: With CCOc1ccc(-c2oc3cc(OCC)cc(O)c3c(=O)c2OCC)c(OCC)c1 [MORIN PENTAETHYL ETHER] as the compound, how does the Activity read?
Answer: The Activity was “inhibitor [(at a rough estimate) 1430 % of control]”.

Question: C=CCOc1ccc(-c2oc3cc(OCC=C)cc(O)c3c(=O)c2OCC=C)c(OCC=C)c1 [MORIN PENTAALLYL ETHER] was tested. Which Activity did it give?
Answer: The Activity was “inhibitor [(at a rough estimate) 500 % of control]”.

Question: How did the Activity turn out when CCCOc1ccc(-c2oc3cc(OCCC)cc(O)c3c(=O)c2OCCC)c(OCCC)c1 [MORIN PENTAPROPYL ETHER] was run?
Answer: Its Activity is “inhibitor [(at a rough estimate) 390 % of control]”.

Question: For COc1ccc(-c2oc3cc(OC)cc(O)c3c(=O)c2OC)c(OC)c1 [MORIN PENTAMETHYL ETHER], which Activity is on record?
Answer: Its Activity is “inhibitor [(at a rough estimate) 470 % of control]”.
